Assay results reported in US20260028354A1, “TETRAHYDRONAPHTHALENE DERIVATIVES AS ESTROGEN RECEPTOR DEGRADERS” (REGENT OF THE UNIVERSITY OF MICHIGAN, priority 2022, published 2026).

How the values were obtained:
[1] = target: ER (Homo sapiens (Human), UniProt P03372); experiment: In-cell western blot analysis of ER for "B" compounds; format: cell-based; conditions: 16 hours, read-out: ICW DC50
Method: R^T 2h, gentle shaking. Negative control: cells plus secondary antibodies (no primary antibodies); e, wash x 4 with PBS+0.05-0.1% Tween 20, gentel shaking; f, anti-rabbit-680 and anti-mouse-800 (both 1:1000 in LiCor block+0.05% Tween20, R^T 1h, gentle shaking, no light. LI-COR: 0.2% to reduce background; g, wash×4 with PBS+0.05% Tween 20, gental shaking; h, add 100 μL or 25 μL of PBS to each well and read on CLX plate reader. The relative ER percentage in treated cells were obtained by comparing the values of treated wells to those in untreated and DMSO-treated wells as 100%.

[2] = Cell growth assay (WST-8) for "B" compounds; format: cell-based; conditions: T47D, T47D cell line; read-out: Cell growth Inhibition in T47D cell line IC50
In short: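 Four-day compound exposure of cells plated at 1500/well the day before. Read-out is WST-8 (10%, 2.5 h, 37 °C) absorbance at 450 nm, normalized to vehicle control over three independent repeats.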

ER, sequence (P03372 whole entry): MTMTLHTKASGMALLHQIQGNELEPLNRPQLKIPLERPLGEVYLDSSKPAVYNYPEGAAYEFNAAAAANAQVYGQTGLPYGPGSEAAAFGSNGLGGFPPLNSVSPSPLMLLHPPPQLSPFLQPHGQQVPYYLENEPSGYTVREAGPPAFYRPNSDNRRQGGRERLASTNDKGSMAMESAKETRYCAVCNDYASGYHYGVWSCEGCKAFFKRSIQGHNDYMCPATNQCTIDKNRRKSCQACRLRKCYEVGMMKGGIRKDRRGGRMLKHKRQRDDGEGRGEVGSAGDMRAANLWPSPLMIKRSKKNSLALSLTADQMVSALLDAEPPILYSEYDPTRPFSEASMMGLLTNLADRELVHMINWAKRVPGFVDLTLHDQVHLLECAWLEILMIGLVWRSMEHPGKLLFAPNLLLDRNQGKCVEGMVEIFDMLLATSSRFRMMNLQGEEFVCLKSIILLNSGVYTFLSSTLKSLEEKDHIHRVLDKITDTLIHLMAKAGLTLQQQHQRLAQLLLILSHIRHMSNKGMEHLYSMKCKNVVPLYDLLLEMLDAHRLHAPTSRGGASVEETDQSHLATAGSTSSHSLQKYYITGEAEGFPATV

SMILES | DC50 [1] [µM] | IC50 [2] [µM]
O=C1CC[C@H](NC(=O)c2ccc(N3CCN(CC4CCN(c5ccc([C@@H]6c7ccc(O)cc7CC[C@@H]6c6ccccc6)cc5)CC4)CC3)cc2F)C(=O)N1 [Compound B317, N-((S)-2,6-dioxopiperidin-3-yl)-2-fluoro-4-(4-((1-(4-((1R,2S)-6-hydroxy-2-phenyl-1,2,3,4-tetrahydronaphthalen-1-yl)phenyl)piperidin-4-yl)methyl)piperazin-1-yl)benzamide] | > 0.1 | 0.001 to 0.01
CN(C(=O)c1ccc2c(c1)OC[C@H]1CN(C(=O)CN3CCC4(CC3)CN(c3ccc(C5c6ccc(O)cc6CCC5c5ccccc5)cc3)C4)CCN21)C1CCC(=O)NC1=O (stereo in doubt) [Compound B223, (4aR)-N-(2,6-dioxopiperidin-3-yl)-3-(2-(2-(4-((1S,2R)-6-hydroxy-2-phenyl-1,2,3,4-tetrahydronaphthalen-1-yl)phenyl)-2,7-diazaspiro[3.5]nonan-7-yl)acetyl)-N-methyl-1,2,3,4,4a,5-hexahydrobenzo[b]pyrazino[1,2-d][1,4]oxazine-8-carboxamide] | 0.01 to 0.1 | > 0.01

Further lines, with some results ahead:

DC50 [1] [µM] | SMILES | IC50 [2] [µM]
> 0.1 | CN1C[C@@H]2CN(CC3COC4(CCN(c5ccc([C@@H]6c7ccc(O)cc7CC[C@@H]6c6ccccc6)cc5)CC4)C3)CCN2c2cc3c(cc21)C(=O)N(C1CCC(=O)NC1=O)C3 (stereo partly drawn) [Compound B234, 3-((4aS)-3-((8-(4-((1R,2S)-6-hydroxy-2-phenyl-1,2,3,4-tetrahydronaphthalen-1-yl)phenyl)-1-oxa-8-azaspiro[4.5]decan-3-yl)methyl)-6-methyl-8-oxo-2,3,4,4a,5,6,8,10-octahydropyrazino[1,2-a]pyrrolo[3,4-g]quinoxalin-9(1H)-yl)piperidine-2,6-dione] | < 0.001
< 0.01 | O=C1CCC(N2Cc3cc4c(cc3C2=O)OC[C@@H]2CN(C(=O)CN3CCC5(C3)CN(c3ccc([C@@H]6c7ccc(O)cc7CC[C@@H]6c6ccccc6)cc3)C5)CCN42)C(=O)N1 (stereo partly drawn) [Compound B154, 3-((S)-3-(2-(2-(4-((1R,2S)-6-hydroxy-2-phenyl-1,2,3,4-tetrahydronaphthalen-1-yl)phenyl)-2,6-diazaspiro[3.4]octan-6-yl)acetyl)-8-oxo-1,2,3,4,4a,5,8,10-octahydro-9H-pyrazino[1′,2′:4,5][1,4]oxazino[2,3-f]isoindol-9-yl)piperidine-2,6-dione] | < 0.001
< 0.01 | O=C1CCC(N2Cc3cc4c(cc3C2=O)OC[C@@H]2CN(CC3CCC5(CCN(c6ccc([C@@H]7c8ccc(O)cc8CC[C@@H]7c7ccccc7)cc6)CC5)OC3)CCN42)C(=O)N1 (stereo partly drawn) [Compound B332, 3-((4aS)-3-((9-(4-((1R,2S)-6-hydroxy-2-phenyl-1,2,3,4-tetrahydronaphthalen-1-yl)phenyl)-1-oxa-9-azaspiro[5.5]undecan-3-yl)methyl)-8-oxo-1,2,3,4,4a,5,8,10-octahydro-9H-pyrazino[1′,2′:4,5][1,4]oxazino[2,3-f]isoindol-9-yl)piperidine-2,6-dione] | 0.001 to 0.01
> 0.1 | CN(CC1CCN(c2ccc([C@@H]3c4ccc(O)cc4CC[C@@H]3c3ccccc3)cc2)CC1)[C@H]1C[C@H]2COc3cc4c(cc3N2C1)CN(C1CCC(=O)NC1=O)C4=O (stereo partly drawn) [Compound B310, 3-((2S,3aS)-2-(((1-(4-((1R,2S)-6-hydroxy-2-phenyl-1,2,3,4-tetrahydronaphthalen-1-yl)phenyl)piperidin-4-yl)methyl)(methyl)amino)-7-oxo-2,3,3a,4,7,9-hexahydro-1H,8H-pyrrolo[1′,2′:4,5][1,4]oxazino[2,3-f]isoindol-8-yl)piperidine-2,6-dione] | < 0.001
